Data from patent publication US8357697B2, “Substituted 3-isobutyl-9,10-dimethoxy-1,3,4,6,7,11b-hexahydro-2H-pyrido[2,1-A]isoquinolin-2-ol compounds and methods relating thereto” (Neurocrine Biosciences, Inc., priority 2006, dated 2013).

How the values were obtained:
Dopamine D2S receptor = target: T1, Dopamine D2S receptor (Homo sapiens, UniProt P14416); experiment: Dopamine D2S receptor competition binding ([3H]spiperone); settings: for inhibition at 10 µM: read-out: D2S (h) % inhibition at 10 uM
T1 construct: expressed in transfected cells; host or cells: CHO cells
Procedure: (§1) The four HTBZ stereoisomers and compounds of the present invention were tested for receptor specificity by screening against a panel of 80 receptors, ion channels and transporters (High-throughput profile, Cerep, S. A.).
(a) Dopamine D2S receptor:
Reference: Grandy et al., (1989) Proc. Natl. Acad. Sci. USA 86: 9762-6
(§2) Source: Human recombinant (CHO cells)
Ligand: [3H]spiperone, 1.0 nM
Incubation time/temperature: 90 min/25° C.
Incubation buffer: 50 mM HEPES, 100 mM NaCl, 1 mM EDTA, 3 mM MgCl2, pH 7.4
Non-specific ligand: clozapine (10 μM)
Specific binding: 600 cpm
(§3) Quantitation method: Scintillation counting

Dopamine D4.4 receptor = target: T2, Dopamine D4.4 receptor (Homo sapiens, UniProt P21917); experiment: Dopamine D4.4 receptor competition binding ([3H]spiperone); settings: for inhibition at 1 µM: read-out: D4.4 (h) % inhibition at 1 uM; for inhibition at 10 µM: read-out: D4.4 (h) % inhibition at 10 uM
T2 construct: expressed in transfected cells; host or cells: CHO cells
T2 sequence (P21917 1-419): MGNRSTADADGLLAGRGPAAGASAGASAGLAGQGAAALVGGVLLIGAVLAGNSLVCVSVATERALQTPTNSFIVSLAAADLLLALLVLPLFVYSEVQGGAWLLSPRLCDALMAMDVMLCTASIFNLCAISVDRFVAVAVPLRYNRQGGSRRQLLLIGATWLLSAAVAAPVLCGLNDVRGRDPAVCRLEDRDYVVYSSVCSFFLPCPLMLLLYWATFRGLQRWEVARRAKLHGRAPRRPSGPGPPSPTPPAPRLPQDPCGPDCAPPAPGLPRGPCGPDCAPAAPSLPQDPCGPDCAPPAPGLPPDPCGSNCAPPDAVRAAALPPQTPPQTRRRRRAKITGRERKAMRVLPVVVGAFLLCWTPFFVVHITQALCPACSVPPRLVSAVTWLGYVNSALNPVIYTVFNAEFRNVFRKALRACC
Procedure: as §1
(b) Dopamine D4.4 receptor:
as §2
Ligand: [3H]spiperone, 0.3 nM
Incubation time/temperature: 60 min./22° C.
Non-specific ligand: (+)butaclamol (10 μM)
as §3

VMAT2 = target: T3, VMAT2 (Rattus norvegicus, UniProt Q01827); experiment: VMAT2 competition binding assay ([3H]-dihydrotetrabenazine); settings: mean±SD, n in brackets; at least two independent experiments; read-out: pKi (n), VMAT2 affinity from competition binding studies (converted)
T3 construct: on rat forebrain homegenate (100 μg membrane protein per well); from tissue; host or cells: rat striatum (Procedure A, vesicles) or Sprague-Dawley rat forebrain homogenate (Procedure B)
Procedure: Preparation of Rat Striatal Vesicles
Rat striata from three rats are pooled and homogenized in 0.32 M sucrose. The homogenate is then centrifuged at 2,000×g for 10 min at 4° C. and the resulting supernatant is centrifuged at 10,000×g for 30 min at 4° C. The resulting pellet containing the enriched synaptosomal fraction (2 mL) is subjected to osmotic shock by addition of 7 mL of distilled H2O, and subsequently the suspension is homogenized. The osmolarity is restored by the addition of 0.9 mL of 0.25 M HEPES and 0.9 mL of 1.0 M neutral L-(+)-tartaric acid dipotassium salt buffer (pH 7.5), followed by a 20 min centrifugation (20,000×g at 4° C.). […]
Aliquots of the vesicle suspension (0.16 mL, 15 μg of protein/mL) are incubated with competitor compounds (ranging from 1E-6M to 1E-12M) and 2 nM [^3H]-dihydrotetrabenazine (HTBZ; specific activity: 20 Ci/mmol, American Radiolabeled Chemicals, Inc) for 1 h at room temperature in a total volume of 0.5 mL. […] Nonspecific binding is determined using 20 μM tetrabenazine (TBZ). […] Bound radioactivity is determined by scintillation spectrometry.
Following incubation at 25° C. for two hours, bound radioligand was collected by rapid filtration onto GF/B glass fiber filters using a Unifilter-96 Harvester (PerkinElmer). […] Bound radioligand was quantified by scintillation counting using a Topcount NXT (PerkinElmer). […]

human hepatocytes = experiment: Stability of compounds in human hepatocytes; type: in vitro ADME; settings: 1 μM, 0-60 min, FIGS. 1a-1c
Procedure: Cryopreserved human hepatocytes from 12 individual donors were thawed according to the supplier's instruction and pooled. Cell viability was determined to be more than 85%. TBZ (1 μM) was incubated with individual human hepatocytes (1×10^6 cells/mL) at 37° C. with 95% O2 and 5% CO2 for 0, 5, 15, 30 and 60 min. TBZ in DMSO was added to achieve 1.0 μM (DMSO was less than 0.5% v/v). All concentrations and cell contents were relative to the final incubation volume of 100 μL. The incubation was terminated by mixing 100 μL of ice-cold acetonitrile in 1% formic acid containing dextromethorphan (1.0 μM) as internal standard for LC/MS analysis. Precipitated proteins were removed by centrifugation (1500-2500×g for 30 min at 15° C.).
Briefly, samples were separated with a gradient HPLC method by Acquity HPLC systems consisting of a pump, a column heater (40° C.), and a vacuum degasser/mobile phase tray. Mobile phase A was water in 0.1% formic acid and mobile phase B was acetonitrile in 0.1% formic acid. The gradient elution was as follows: mobile phase B: 0-10% at 0-0.75 min, 40-90% at 1.25-1.5 min, 90-0% at 1.75-2.0 min, and run time was 3 min. The reverse phase column was a BEH C18 column (50×2.1 mm, 1.7 μm). Flow rate was 0.8 mL/min and injection volume was 7.5 μL. The samples were monitored with API-3000 mass spectrometer and ESI ion source in positive mode, TBZ m/z 318.4>220.4, HTBZ m/z 320.3>302.3, and dextromethorphan m/z 272.2>147.2.

[1] = Pharmacokinetic evaluation in rat, single oral dose; type: in vivo
Procedure: In brief, single oral dose (10 mg/kg) of 2-1 and 3-1 in 10% PEG in 0.25% methylcellulose in milli Q water was administered to rats (3 rats/dose) for a pharmacokinetic evaluation. Serial sampling was used to collect blood samples, which were taken from each treated animal at nine time points ranging from pre-dose to 24 hours post dose (0, 0.25, 0.5, 1, 2, 4, 6, 8 and 24 hours) for the oral administration. Plasma samples were stored at −80° C. or below until analysis.
Plasma samples were thawed on ice, and 50 μL of plasma was transferred to a 96-well plate. Plasma proteins were precipitated by addition of pre-chilled 150 μL acetonitrile (ACN) containing 75 ng/mL internal standard. Additional 50 μL of ACN/water (60:40) was added into each sample. Calibration curve samples were prepared by a serial dilution in ACN/water (60:40). Fifty microliter of each standard sample was transferred to a 96-well plate followed by adding 150 μL acetonitrile (ACN) containing 75 ng/mL internal standard and 50 μL blank rat plasma. The plates were capped, mixed and centrifuged at 3000 rpm for 20 min. The supernatant was collected and injected into a LC-MS/MS system for quantification. […] of QC samples (4, 40, 400, 800 ng/ml) for 3-1,2-1 and 1d.1 were used as quality control for the studies needed and prepared in a same way as the standards. Quantification was performed by fitting peak area ratios to a weighted (1/x^2) linear calibration curve.
(§4) Descriptive pharmacokinetics were derived and evaluated based on the plasma concentrations of 3-1, 2-1 and 1d.1 from each individual […]. Pharmacokinetic parameters were determined using Non-Compartmental Analysis of the plasma concentration-time profiles of 3-1, 2-1 and 1d.1 in WinNonlin pharmacokinetic modeling software Professional Version 5.0.1 program (Pharsight Corporation, Mountain View, Calif.).

[2] = tested on: panel of 80 receptors, ion channels and transporters; experiment: Receptor selectivity binding assays (Cerep high-throughput profile); settings: versus the dopamine receptors tested
Procedure: as §1

[3] = Pharmacokinetic evaluation in dog, single oral dose; type: in vivo; settings: oral 10 mg/kg (2-1), FIGS. 3c-3d
Procedure: In brief, a single oral dose (6.1 mg/kg for 3-1 and 10 mg/kg for 2-1) in 10% PEG in 0.25% methylcellulose in milli Q water was administered to dogs (3 dogs/dose) for a pharmacokinetic evaluation. Serial sampling was used to collect blood samples, which were taken from each treated animal at nine time points ranging from pre-dose to 24 hours post dose ([…]) for the oral administration. Plasma samples were stored at −80° C. or below until analysis.
Plasma samples were thawed on ice, and 50 μL of plasma was transferred to a 96-well plate. Plasma proteins were precipitated by addition of pre-chilled 150 μL acetonitrile (ACN) containing 75 ng/mL internal standard. Additional 50 μL of ACN/water (60:40) was added into each sample. […] The supernatant was collected and injected into a LC-MS/MS system for quantification. […] Quantification was performed by fitting peak area ratios to a weighted (1/x^2) linear calibration curve.
as §4

[4] = Stability in human liver microsomes; type: in vitro ADME; settings: 1 μM, 0-60 min, FIGS. 2a-2f
Procedure: Briefly, pooled human liver microsomes (0.1 or 0.5 mg/mL; n>10; mixed gender) were incubated at 37° C. with the test compound in the presence of an NADPH-generating system containing 50 mM, pH 7.4 potassium phosphate buffer, 3 mM magnesium chloride, 1 mM EDTA, 1 mM NADP, 5 mM G-6-P, and 1 Unit/mL G-6-PD.
Incubations were conducted in six modified 2.0-mL, 96-well, deep-well plates in 1 μM of each compound (0.01% DMSO) with a total volume of 250 μl. Each plate, representing a single time point, contained 96 Titertube® Micro Tubes allowing for duplicates of 48 compounds at each time point (0, 5, 10, 20, 40, and 60 minutes). Reaction was stopped by the addition of an appropriate stop reagent (0.3 mL of acetonitrile containing a proprietary internal standard). Precipitated proteins were removed by centrifugation for 15 min at 3000 rpm, and the supernatant fluid (˜0.1 mL) was analyzed by LC/MS for the % of parent compound remaining.
Samples were separated with a gradient HPLC method by Agilent LC systems consisting of a pump, a column heater (40° C.), and a vacuum degasser/mobile phase tray. Mobile phase A was water in 0.1% formic acid and mobile phase B was acetonitrile in 0.1% formic acid. […] The samples were monitored with API-3000 mass spectrometer and ESI ion source in positive mode, TBZ m/z 318.4>220.4, HTBZ m/z 320.3>302.3, and dextromethorphan m/z 272.2>147.2.

[5] = Stability in dog liver microsomes; type: in vitro ADME; settings: 1 μM, 0-60 min, FIGS. 2a-2f
[6] = Stability in rat liver microsomes; type: in vitro ADME; settings: 1 μM, 0-60 min, FIGS. 2a-2f
[7] = humans, background statement; cited from earlier work

T1 sequence (P14416 1-414 isoform P14416-2): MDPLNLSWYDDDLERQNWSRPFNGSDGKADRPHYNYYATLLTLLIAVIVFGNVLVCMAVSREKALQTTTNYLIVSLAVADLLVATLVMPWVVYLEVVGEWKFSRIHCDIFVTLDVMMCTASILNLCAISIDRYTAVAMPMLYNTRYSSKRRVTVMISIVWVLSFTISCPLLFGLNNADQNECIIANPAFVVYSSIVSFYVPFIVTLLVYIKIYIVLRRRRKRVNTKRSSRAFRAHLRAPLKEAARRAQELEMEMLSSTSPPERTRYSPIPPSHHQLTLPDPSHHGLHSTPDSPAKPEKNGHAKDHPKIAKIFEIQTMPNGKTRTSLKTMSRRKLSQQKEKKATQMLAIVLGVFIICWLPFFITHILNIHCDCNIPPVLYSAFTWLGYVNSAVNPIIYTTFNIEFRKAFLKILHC
T3 sequence (Q01827 whole entry): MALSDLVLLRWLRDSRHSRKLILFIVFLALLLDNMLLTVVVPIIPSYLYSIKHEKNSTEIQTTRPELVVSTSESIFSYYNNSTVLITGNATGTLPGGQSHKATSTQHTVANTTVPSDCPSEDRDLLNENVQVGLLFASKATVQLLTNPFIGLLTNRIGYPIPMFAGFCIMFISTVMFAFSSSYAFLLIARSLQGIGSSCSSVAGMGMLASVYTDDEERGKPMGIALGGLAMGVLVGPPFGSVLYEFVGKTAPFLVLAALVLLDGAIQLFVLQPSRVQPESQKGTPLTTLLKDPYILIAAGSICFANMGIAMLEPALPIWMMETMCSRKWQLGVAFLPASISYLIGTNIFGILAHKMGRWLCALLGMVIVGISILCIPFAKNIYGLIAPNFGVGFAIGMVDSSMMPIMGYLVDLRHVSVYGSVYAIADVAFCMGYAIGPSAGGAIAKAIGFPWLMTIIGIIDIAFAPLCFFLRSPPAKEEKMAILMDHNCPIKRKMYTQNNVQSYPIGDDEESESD

For `COc1cc2c(cc1OC)[C@H]1C[C@@H](O)[C@H](CC(C)C)CN1CC2` [2R, 3R, 11bR-HTBZ, (2R,3R,11bR)-3-isobutyl-9,10-dimethoxy-1,3,4,6,7,11b-hexahydro-2H-pyrido[2,1-a]isoquinolin-2-ol], the inhibition at 10 µM (Dopamine D2S receptor) was -6% and the inhibition at 1 µM (Dopamine D4.4 receptor) was 0%.
With `COc1cc2c(cc1OC)[C@@H]1C[C@H](O)[C@@H](CC(C)C)CN1CC2` [2S, 3S, 11bS-HTBZ] the Ki (Dopamine D2S receptor) was 192 nM, the “binding/inhibition at D2(S) (in words)” value (Dopamine D2S receptor) was “high affinity binding” and the inhibition at 1 µM (Dopamine D4.4 receptor) was 9%.
For `COc1cc2c(cc1OC)[C@@H]1C[C@@H](O)[C@@H](CC(C)C)CN1CC2` [2R, 3S, 11bS-HTBZ], the Ki (Dopamine D2S receptor) was 57 nM, the “binding/inhibition at D2(S) (in words)” value (Dopamine D2S receptor) was “high affinity binding” and the Ki (Dopamine D4.4 receptor) was 67 nM.
For `COc1cc2c(cc1OC)[C@H]1C[C@H](O)[C@H](CC(C)C)CN1CC2` [2S, 3R, 11bR-HTBZ, (2S,3R,11bR)-3-isobutyl-9,10-dimethoxy-1,3,4,6,7,11b-hexahydro-2H-pyrido[2,1-a]isoquinolin-2-ol], the “binding/inhibition at D2(S) (in words)” value (Dopamine D2S receptor) was “some minor inhibition”, the inhibition at 30 µM (Dopamine D2S receptor; read-out: D2S (h) % inhibition at 30 uM) was 17% and the “inhibition at dopamine D4.4 receptor (in words)” value (Dopamine D4.4 receptor) was “some minor inhibition”. For the same molecule, the inhibition at 10 µM (Dopamine D4.4 receptor) was 30%.
With `CCOC(=O)O[C@@H]1C[C@@H]2c3cc(OC)c(OC)cc3CCN2C[C@H]1CC(C)C` [Compound 3-1, Carbonic acid ethyl ester (2R,3R,11bR)-3-isobutyl-9,10-dimethoxy-1,3,4,6,7,11b-hexahydro-2H-pyrido[2,1-a]isoquinolin-2-yl ester] the inhibition at 10 µM (Dopamine D2S receptor) was 15%, the Ki (VMAT2) was 12.6 nM and the “conversion in human hepatocytes to HTBZ (tetrabenazine) or to 1d.1 (compounds 2-1, 3-1)” value (shortened to “conversion in human hepatocytes to HTBZ”) (human hepatocytes) was “rapid”. The inhibition at 10 µM (Dopamine D4.4 receptor) was 15%, the “parent compound in rat plasma after oral administration” value ([1]; oral 10 mg/kg, limit of quantification 1 ng/mL) was “No 3-1 was detected” and the “rat plasma concentration time profile of 1d.1 from 3-1 compared with 1d.1 administered orally” value ([1]; oral, FIG. 3a) was “indistinguishable”. The “selectivity for VMAT2 (in words)” value [2] was “demonstrated selectivity for VMAT2”.
With `COc1cc2c(cc1OC)[C@H]1C[C@@H](OC(=O)[C@@H](N)C(C)C)[C@H](CC(C)C)CN1CC2` [Compound 2-1, (S)-2-Amino-3-methyl-butyric acid (2R,3R,11bR)-3-isobutyl-9,10-dimethoxy-1,3,4,6,7,11b-hexahydro-2H-pyrido[2,1-a]isoquinolin-2-yl ester] the inhibition at 10 µM (Dopamine D2S receptor) was 2%, the Ki (VMAT2) was 200 nM and the “plasma half-life of 1d.1 upon oral administration of compound 2-1 relative to compound 3-1” value [3] was 2-3 times. The “conversion in human hepatocytes to HTBZ” value (human hepatocytes) was “comparatively slow”, the “conversion to 1d.1 in human liver microsomes, compared with compound 3-1” value [4] was “slower” and the “conversion to 1d.1 in dog liver microsomes, compared with compound 3-1” value [5] was “slower”. For the same molecule, the inhibition at 10 µM (Dopamine D4.4 receptor) was 13%, the “plasma half-life of 1d.1 upon oral administration of compound 2-1 relative to compound 3-1” value ([1]; oral 10 mg/kg, FIGS. 3a-3b) was 2-3 times and the “selectivity for VMAT2 (in words)” value [2] was “demonstrated selectivity for VMAT2”. The “conversion to 1d.1 in rat liver microsomes, compared with compound 3-1” value [6] was “slower”.
For `COc1cc2c(cc1OC)C1CC(=O)C(CC(C)C)CN1CC2` (racemic) [Tetrabenazine, 3-Isobutyl-9,10-dimethoxy-1,3,4,6,7,11b-hexahydro-2H-pyrido[2,1-a]isoquinolin-2-one, reference compound], the bioavailability [7] is listed as “fairly low and variable” and the “conversion in human hepatocytes to HTBZ” value (human hepatocytes) is listed as “rapid”.
